Source: patent US6413970B1, “Pharmaceutical composition for treating viral diseases” (UCB S.A., priority 1996, dated 2002)
Where a name gives a salt, the structure may show the parent alone.

What was measured:
Assay type in all cases: cell-based
[1] = tested on: RSV-induced IL-8 release from human PMN; assay: RSV-induced IL-8 release from human PMN, ELISA
Method: (§1) Human granulocytes were isolated from 200 ml of heparinized blood (15 U ml) from healthy donors separated on a Ficoll-metrizoate gradient followed by dextran sedimentation and washed twice at 300 g. This method led to more than 95% pure PMN. The cells were diluted to a final density of 1×10^6 PMN.
(§2) Virus preparation was performed as described by R. ARNOLD et al. in Immunology 82, 126-133 (1994). For crude preparation, respiratory syncytial virus (RSV), Long Stain (ATCC), was grown and titrated in HEP-2 cells. The RSV titre was determined in a plaque-forming unit (PFU) assay. The stock titre of the virus pool used in the study was 5×10^6 PFU/ml. The stock solution was stored at −70° C. until use. Interleukin-8 (IL-8) levels were under the detection limit in the stock solution, as analysed by enzyme-linked immuno sorbent assay (ELISA). The absence of mycoplasma infection was verified by microplasma-specific PCR. […]
(§3) PMN were suspended in RPMI medium at a concentration of 1×10^6/ml. […] Culture supernatants were collected and analyzed for their IL-8 content. IL-8 release was determined using a sandwich ELISA according to the method indicated hereinbefore. […] After addition of p-nitrophenylphosphate (15 mg/ml) for quantification, an ELISA reader and for calculation Mikrotek software (SLT Labinstruments, Crailsheim, Germany) were used. […]

[2] = tested on: respiratory syncytial virus (RSV); assay: RSV-specific mRNA (SH gene) expression in RSV-treated human PMN, RT-PCR; conditions: human PMN 1×10^6/ml, RSV 1 m.o.i., cetirizine 100-, 0.1-, 0.01 μg/10^6 PMN, 2 hours and 16 hours at 37° C., FIG. 2
Method: as §1, §2
The analysis of RSV-specific genomic RNA was performed by coupled reverse transcription and polymerase chain reaction PCR detection of RSV-genomic-RNA encoding for the small hydrophobic protein (SH) of RSV as described previously by R. ARNOLD et al. in Immunology 82, 126-133 (1994). […] Expression of genomic RSVSH RNA was analysed after reverse transcription with sense primers and PCR amplification of the cDNA transcripts. […]

[3] = tested on: ongoing IL-8 release induced by RSV, human PMN; assay: Ongoing IL-8 release induced by RSV in human PMN, delayed cetirizine addition, ELISA
Method: as §1, §2, §3

O=C(O)COCCN1CCN(C(c2ccccc2)c2ccc(Cl)cc2)CC1 (racemic) [cetirizine dihydrochloride, 2-[2-[4-[(4-chlorophenyl)phenylmethyl]-1-piperazinyl]ethoxy]-acetic acid]
RSV-induced IL-8 release at the stated concentration range ([1]; cetirizine at concentrations <0.01 μg/ml but >100 μg/ml (so in the source), similar after incubation up to 24 hours and RSV up to 5 m.o.i.): significant reduction in RSV-induced IL-8 release | RSV-induced IL-8 release ([1]; human PMN 1×10^6/ml, total incubation 2 hours at 37° C., cetirizine 100-0.01 μg/ml, dose-dependent, 8 independent experiments, FIG. 3): down-regulated the RSV-induced IL-8 release | RSV-specific mRNA expression of the small hydrophobic (SH) gene [2]: inhibits RSV-specific mRNA expression | Down regulation of RSV-induced IL-8 release, concentration range of strongest effect ([3]; cetirizine concentrations >0.01 μg/ml and <10 μg/ml, strongest when added at the onset of RSV treatment): most pronounced | ongoing IL-8 release by RSV ([3]; human PMN 1×10^6/ml, RSV 1 m.o.i., cetirizine 100 μg, 10 μg, 0.01 μg added immediately, 30, 60 or 90 minutes after onset of RSV treatment, total 2 hours at 37° C., FIG. 4A-D): down regulates an ongoing IL-8 release by RSV
